Reference: patent US20040116652A1, “Method for producing and using novel human defensins as biologically active proteins for treating infections and other diseases” (priority 2000, published 2004)
Bridge positions count the residues as written; N and C are the ends. Ends that are not written are not given here.

Tests used:
Assay in all cases: radial diffusion assay, antimicrobial effect
Type in all cases: cell-based
Parameters in all cases: key: (+) means the formation of an inhibition halo; (−) means no formation of an inhibition halo
Escherichia coli = system: Escherichia coli
Description: (§1) In a radial diffusion assay, the activities stated in Table 1 could be measured for the peptides against different bacterial strains. In the Table, (+) means the formation of an inhibition halo, and (−) means no formation of an inhibition halo.

Saccharomyces cerevisiae = system: Saccharomyces cerevisiae
Description: as §1

Staphylococcus carnosus = system: Staphylococcus carnosus
Description: as §1

Sequence	formation of an inhibition halo (Escherichia coli)	formation of an inhibition halo (Saccharomyces cerevisiae)	formation of an inhibition halo (Staphylococcus carnosus)
NTICHMQQGICRLFFCHSGEKKRGICSDPWNRCCVSNTDEEGKEKPEMD (disulfide 4-33, 11-26, 16-34) [hBD10]	(+)	(+)	(+)
TPGGTQRCWNLYGKCRYRCSKKERVYVYCINNKMCCVKPKYQPKERWWPF (disulfide 8-35, 15-29, 19-36) [hBD17]	(+)	(+)	(+)
FIGLRRCLMGLGRCRDHCNVDEKEIQKCKMKKCCVGPKVVKLIK (disulfide 7-33, 14-28, 18-34) [hBD19]	(+)	(−)	(+)
